According to patent US4239778A, “Azaprostanoic acid analogs and their use as inhibitors of platelet aggregation” (priority 1978, dated 1980):
“Also recorded” adds a separate entry of the source. Read-outs that look alike come from different tables or passages of the source.

Experiments:
[1] = test system: platelets; assay: PGH2-induced platelet aggregation (Table V); assay type: cell-based
[2] = test system: platelet rich plasma; assay: Platelet aggregation with 500 μM arachidonic acid (Table IV); assay type: cell-based
Procedure: (§1) Platelet rich plasma was aggregated with 500 μM arachidonic acid and three minutes following arachidonate addition, aliquots of the plasma were drawn for TXB2 determinations.

[3] = test system: thromboxane synthetase; assay: TXB2 formation in response to added PGH2 in indomethacin-treated resuspended platelets (thromboxane synthetase); assay type: cell-based
Procedure: This possibility was examined by measuring the effect of 13-APA on TXB2 formation in response to added PGH2 (0.13 μg/ml). Platelets were isolated from EDTA-treated ([…]) PRP by centrifugation at 800 xg for 15 minutes. The platelet pellet was resuspended by gentle swirling in calcium-free Tyrode buffer (pH 7.4). […] Moreover, if it is assumed that TXA2 is the final mediator involved in prostaglandin activation, 13-APA must act to block the interaction of TXA2 with the platelet receptor.

[4] = test system: thromboxane synthetase; conditions: cited from earlier work
[5] = test system: platelet cAMP levels; conditions: cited from earlier work
[6] = test system: platelet conversion of AA to thromboxane B2 (TXB2); assay: TXB2 formation in platelet rich plasma aggregated with arachidonic acid (radioimmunoassay); assay type: cell-based
Procedure: as §1

[7] = test system: platelet aggregation; conditions: cited from earlier work
[8] = test system: cyclooxygenase; conditions: cited from earlier work
[9] = in vivo; cited from earlier work
[10] = test system: Swiss Webster mice; assay type: in vivo, mouse; conditions: 30 mg/kg i.p.
Procedure: (§2) Swiss Webster mice (25 gm) maintained on a Purina diet were injected intraperitoneally with either 0.1 ml corn oil or 0.1 ml corn oil containing 13-azaprostanoic acid (13-APA) of Example 5. The dose of 13-APA employed was 30 mg/kg. One hour subsequent to injection, 0.05 ml of a sodium arachidonate solution was administered by rapid I.V. through the tail vein to both control and drug-treated mice. The arachidonate was dissolved in 90% saline and 10% ethanol (95%).

[11] = test system: platelet receptor; assay: Platelet aggregation induced by direct agonist 9-epoxy CEE; assay type: cell-based; conditions: 3 μM 9-epoxy CEE
Text: Such inhibitory activity has not been previously reported for any compound which selectively blocks AA-induced aggregation.

[12] = test system: mice; assay: Observation of mice after 30 mg/kg 13-APA; assay type: in vivo, mouse; conditions: months after dose
Procedure: as §2

[13] = test system: PGE2; conditions: cited from earlier work
[14] = test system: prostacyclin synthetase; conditions: cited from earlier work
[15] = AA 500 μM + imidazole 100 μg/ml
[16] = AA 500 μM + imidazole 200 μg/ml
[17] = 1 h before I.V. arachidonate (100 mg/kg), number of mice of 4

SMILES: c1c[nH]cn1 [imidazole]
- % Aggregation ([1]; PGH2 […] + imidazole 20 μg/ml): 30%
- % Aggregation ([1]; PGH2 […] + imidazole 100 μg/ml): 50%
- % Aggregation ([1]; PGH2 […] + imidazole 200 μg/ml): 60%
- % Aggregation ([2]; AA 500 μM + imidazole 20 μg/ml): 21%
- % Aggregation [2, 15]: 11%
- % Aggregation [2, 16]: 5%
- inhibition at 20 µg/mL ([2]; Platelet, read-out: inhibition of aggregation): ~75%
- TXB2 ([3]; PGH2 […] + imidazole 20 μg/ml): 26 ± 1 ng/mL
- TXB2 ([3]; PGH2 […] + imidazole 100 μg/ml): 6 ± 1 ng/mL
- TXB2 ([3]; PGH2 […] + imidazole 200 μg/ml): 3 ± 1 ng/mL
- thromboxane synthetase inhibition (in words) ([3]; imidazole 20-200 μg/ml): blocks thromboxane synthetase in a dose dependent manner
- concentration necessary to achieve inhibition of thromboxane synthetase [4]: 2 mM
- inhibition of thromboxane synthetase (in words) [4]: selectively inhibit thromboxane synthetase in a concentration dependent fashion
- inhibition of thromboxane synthetase (in words) ([4]; listed as Imidazole): selectively inhibits thromboxane synthetase
- changes in platelet cAMP levels (in words) [5]: without inducing changes in platelet cAMP levels
- TXB2 ([6]; AA 500 μM + imidazole 20 μg/ml): 669 ± 33 ng/mL
- TXB2 [6, 15]: 264 ± 7 ng/mL
- TXB2 [6, 16]: 138 ± 8 ng/mL
- TXB2 formation (in words) ([6]; imidazole 200 μg/ml): substantial depression of TXB2 formation
- TXB2 levels versus control (in words) ([6]; imidazole decreased from 200 μg/ml to 20 μg/ml): significantly lower than control
- effect on platelet aggregation (in words) [7]: erratic; also recorded: potentiate aggregation in washed platelets

SMILES: CC(=O)Oc1ccccc1C(=O)O [aspirin]
- inhibition of prostaglandin biosynthesis / cyclooxygenase (in words) [8]: inhibit prostaglandin biosynthesis by blocking the conversion of substrate fatty acids to endoperoxides
- bleeding times (in words) [9]: prolong bleeding times

SMILES: CCCCCCCN[C@H]1CCC[C@@H]1CCCCCCC(=O)O [Example 13-APA, 13-azaprostanoic acid]
- inhibition of PGH2-induced aggregation (in words) ([1]; 13-APA 10 μM): completely effective in inhibiting PGH2 -induced aggregation
- % Aggregation ([1]; PGH2 […] + 13-APA 10 μM): 0%
- % Aggregation ([1]; PGH2 […] + 13-APA 50 μM): 0%
- % Aggregation ([1]; PGH2 […] + 13-APA 100 μM): 0%
- inhibition of aggregation (in words) ([2]; 13-APA 50 μM): completely inhibits aggregation
- % Aggregation ([2]; AA 500 μM + 13-APA 10 μM): 80%
- % Aggregation ([2]; AA 500 μM + 13-APA 50 μM): 0%
- Death [10, 17]: 0
- Severe Respiratory Distress [10, 17]: 0
- symptoms of thromboembolism (in words) ([10]; arachidonate 100 mg/kg I.V.): none of the symptoms of thromboembolism
- platelet production of TXB2 (in words) ([3]; 13-APA 100 μM): no effect on platelet production of TXB2
- TXB2 ([3]; PGH2 […] + 13-APA 10 μM): 50 ± 2 ng/mL
- TXB2 ([3]; PGH2 […] + 13-APA 50 μM): 44 ± 2 ng/mL
- TXB2 ([3]; PGH2 […] + 13-APA 100 μM): 40 ± 2 ng/mL
- inhibition of aggregation induced by 9-epoxy CEE (in words) ([11]; 13-APA 100 μM): completely inhibited
- inhibition at 10 µM ([11]; Platelet, 13-APA 10 μM): ~60%
- TXB2 ([6]; AA 500 μM + 13-APA 10 μM): 1164 ± 25 ng/mL
- TXB2 ([6]; AA 500 μM + 13-APA 50 μM): 750 ± 19 ng/mL
- inhibition at 50 µM ([6]; Platelet, 0.05 h, 13-APA 50 μM, read-out: decrease of TXB2 formation): 36%
- ill effects / toxicity (in words) [12]: no ill effects are evident

SMILES: CCCCCC/C=C/C1C2CC(N=N2)C1C/C=C\CCCC(=O)O (centres unmarked) [azo prostanoic acid analog]
- PGE2 formation (in words) [13]: increase in PGE2
- inhibition of prostaglandin biosynthesis / cyclooxygenase (in words) [8]: cyclooxygenase enzyme was not affected
- inhibition of prostacyclin synthetase (in words) [14]: inhibitory activity may also extend to prostacyclin synthetase
- inhibition of thromboxane synthetase (in words) [4]: potent inhibitor of thromboxane synthetase
- inhibition of thromboxane synthetase (in words) ([4]; listed as azo analog): competitive inhibitor of PGH2 binding to the thromboxane synthetase enzyme; also recorded: selectively inhibit thromboxane synthetase in a concentration dependent fashion
- effect on platelet aggregation (in words) [7]: inhibitor of platelet aggregation induced by PGH2, arachidonic acid, or collagen, and of the second wave of ADP or epinephrine-induced aggregation
- effect on platelet aggregation (in words) ([7]; listed as azo analog): suppressed the attendant aggregation induced by arachidonate in a parallel, concentration-dependent fashion
